Reference: patent US10030047B2 (Hoffmann-La Roche Inc., priority 2015, dated 2018)
Read-outs that look alike come from different tables or passages of the source.

System: A. baumannii strain ATCC17978
Assay: 50% growth inhibitory concentration (IC50) determination, Iso-Sensitest broth
Assay type: cell-based
Conditions: Acinetobacter baumannii, read-out: IC50 ATCC17978
Experimental: The in vitro antimicrobial activity of the compounds was alternatively determined according to the following procedure:
The assay used a 10-points Iso-Sensitest broth medium to measure quantitatively the in vitro activity of the compounds against A. baumannii ATCC 17978.
Stock compounds in DMSO were serially twofold diluted (e.g. range from 50 to 0.097 μM final concentration) in 384 wells microtiter plates and inoculated with 49 μl the bacterial suspension in Iso-Sensitest medium to have a final cell concentration of ˜5×10^(5) CFU/ml in a final volume/well of 50 ul/well. Microtiter plates were incubated at 35±2° C.
Bacterial cell growth was determined with the measurement of optical density at λ=600 nm each 20 minutes over a time course of 16 h.
Growth inhibition was calculated during the logarithmic growth of the bacterial cells with determination of the concentration inhibiting 50% (IC50) and 90% (IC90) of the growth.
Tables 3, 4 and 5 provide the 50% growth inhibitory concentrations (IC50) in micromoles per liter of the compounds of present invention obtained against the A. baumannii strain ATCC17978.

[1] = A. baumannii ATCC17978, Iso-Sensitest medium, OD 600 nm over 16 h

`CN1C(=O)[C@H](CCCCN)NC(=O)[C@H](CCCN)NCc2ccccc2Sc2c(Cl)cncc2CNC(=O)[C@@H]1Cc1c[nH]c2ccccc12` [Example 158] showed an IC50 [1] of under 390 nM.

Work on `CN1C(=O)[C@H](CCCCN)NC(=O)[C@H](CCCN)NCc2cccnc2Sc2c(Cl)ccc(-c3ccc(C4CCNCC4)cc3)c2CNC(=O)[C@@H]1Cc1c[nH]c2ccccc12` [Example 250, (11S,14S,17S)-14-(4-Amino-butyl)-1-(3-amino-propyl)-25-chloro-17-(1H-indol-3-ylmethyl)-16-methyl-22-(4-piperidin-4-yl-phenyl)-2-thia-4,10,13,16,19-pentaaza-tricyclo[19.4.0.0*3,8*]pentacosa-1(25),3(8),4,6,21,23-hexaene-12,15,18-trione] yielded an IC50 [1] of under 100 nM.

For `CN1C(=O)[C@H](CCCCN)NC(=O)[C@H](CCCN)NCc2cccnc2Sc2c(Cl)ccc(C(F)(F)F)c2CNC(=O)[C@@H]1Cc1c[nH]c2ccc(Cl)cc12` [Example 135, (11S,14S,17S)-14-(4-Amino-butyl)-11-(3-amino-propyl)-25-chloro-17-(5-chloro-1H-indol-3-ylmethyl)-16-methyl-22-trifluoromethyl-2-thia-4,10,13,16,19-pentaaza-tricyclo[19.4.0.0*3,8*]pentacosa-1(25),3,5,7,21,23-hexaene-12,15,18-trione], the IC50 [1] was 200 nM.

`CN1C(=O)[C@H](CCCCN)NC(=O)[C@H](CCCN)NCc2ccccc2Sc2cnc(Cl)cc2CNC(=O)[C@@H]1Cc1c[nH]c2ccccc12` [Example 153] showed an IC50 [1] of under 390 nM.

`CN1C(=O)[C@H](CCCCN)NC(=O)[C@H](CCCN)NCc2cccnc2Sc2cnc(Cl)cc2CNC(=O)[C@@H]1Cc1c[nH]c2ccccc12` [Example 159, (7S,10S,13S)— 13-((1H-Indol-3-yl)methyl)-10-(4-aminobutyl)-7-(3-aminopropyl)-18-chloro-12-methyl-6,7,9,10,12,13,15,16-octahydrodipyrido[2,3-b:4′,3′-p][1,5,8,11,14]thiatetraazacycloheptadecine-8,11,14(5H)-trione] showed an IC50 [1] of under 390 nM.

`CN1C(=O)[C@H](CCCCN)NC(=O)[C@H](CCCN)NCc2cccnc2Sc2c(Cl)ccc(-c3ccc(C(=O)O)cc3)c2CNC(=O)[C@@H]1Cc1c[nH]c2ccccc12` [Example 239, 4-[(11S,14S,17S)-14-(4-Amino-butyl)-11-(3-amino-propyl)-25-chloro-17-(1H-indol-3-ylmethyl)-16-methyl-12,15,18-trioxo-2-thia-4,10,13,16,19-pentaaza-tricyclo[19.4.0.0*3,8*]pentacosa-1 (25),3(8),4,6,21,23-hexaen-22-yl]-benzoic acid] gave an IC50 (ATCC17978, 16 h) of under 1000 nM.

`CN1C(=O)[C@H](CCCCN)NC(=O)[C@H](CCCN)NCc2ccc(Br)cc2Sc2c(Cl)cccc2CNC(=O)[C@@H]1Cc1c[nH]c2ccccc12` [Example 219, (12S,15S,18S)-15-(4-Amino-butyl)-18-(3-amino-propyl)-24-bromo-4-chloro-12-(1H-indol-3-ylmethyl)-13-methyl-2-thia-10,13,16,19-tetraaza-tricyclo[19.4.0.0*3,8*]pentacosa-1(25),3,5,7,21,23-hexaene-11,14,17-trione] showed an IC50 [1] of 600 nM.

In the case of `COc1cc(-c2ncc(Cl)c3c2Sc2ccccc2CN[C@@H](CCCN)C(=O)N[C@@H](CCCCN)C(=O)N(C)[C@@H](Cc2c[nH]c4ccccc24)C(=O)NC3)ccn1` [Example 196], the IC50 [1] is reported as 100 nM.

With `CN1C(=O)[C@H](CCCCN)NC(=O)[C@H](CCCO)NCc2cccnc2Sc2c(Cl)cc(Cl)cc2CNC(=O)[C@@H]1Cc1c[nH]c2ccccc12` [Example 252, (11S,14S,17S)-14-(4-Amino-butyl)-23,25-dichloro-11-(3-hydroxy-propyl)-17-(1H-indol-3-ylmethyl)-16-methyl-2-thia-4,10,13,16,19-pentaaza-tricyclo[19.4.0.0*3,8*]pentacosa-1(25),3(8),4,6,21,23-hexaene-12,15,18-trione] the IC50 [1] was 500 nM.

For `NCCCC[C@@H]1NC(=O)[C@@H](CCCN)NCc2cccnc2Sc2c(ccc(-c3ccccc3)c2Cl)CNC(=O)[C@H](Cc2c[nH]c3ccccc23)NC1=O` [Example 124, (11R,14S,17S)-14-(4-Amino-butyl)-11-(3-amino-propyl)-25-chloro-17-(1H-indol-3-ylmethyl)-24-phenyl-2-thia-4,10,13,16,19-pentaaza-tricyclo[19.4.0.0*3,8*]pentacosa-1(25),3,5,7,21,23-hexaene-12,15,18-trione], the IC50 [1] was 34900 nM.

Compound `CN1C(=O)[C@H](CCCCN)NC(=O)[C@H](CCC(N)=O)NCc2ccccc2Sc2c(cc(-c3ccccc3)cc2C(F)(F)F)CNC(=O)[C@@H]1Cc1c[nH]c2ccccc12` [Example 155, 3-[(11S,14S,17S)-14-(4-Amino-butyl)-17-(1H-indol-3-ylmethyl)-16-methyl-12,15,18-trioxo-23-phenyl-25-trifluoromethyl-2-thia-10,13,16,19-tetraaza-tricyclo[19.4.0.0*3,8*]pentacosa-1(25),3,5,7,21,23-hexaen-11-yl]-propionamide] has an IC50 [1] of 2700 nM.

`CN1C(=O)[C@H](CCCCN)NC(=O)[C@H](CCCN)NCc2cccnc2Sc2c(Cl)ccc(-c3ccc(CN)cc3)c2CNC(=O)[C@@H]1Cc1c[nH]c2ccccc12` [Example 243, (11S,14S,17S)-14-(4-Amino-butyl)-22-(4-aminomethyl-phenyl)-11-(3-amino-propyl)-25-chloro-17-(1H-indol-3-ylmethyl)-16-methyl-2-thia-4,10,13,16,19-pentaaza-tricyclo[19.4.0.0*3,8*]pentacosa-1(25),3(8),4,6,21,23-hexaene-12,15,18-trione] gave an IC50 [1] of under 100 nM.

`CN1C(=O)[C@H](CCCCN)NC(=O)[C@H](CCCN)NCc2ccccc2Sc2c(Cl)ncc(Cl)c2CNC(=O)[C@@H]1Cc1c[nH]c2ccccc12` [Example 152] showed an IC50 [1] of under 390 nM.

`CN1C(=O)[C@H](CCCCN)NC(=O)[C@H](CCCN)NCc2cccnc2Sc2c(Cl)ccc(C(F)(F)F)c2CNC(=O)[C@@H]1Cc1ccc2ccccc2n1` [Example 132, (11S,14S,17S)-14-(4-Amino-butyl)-11-(3-amino-propyl)-25-chloro-16-methyl-17-quinolin-2-ylmethyl-22-trifluoromethyl-2-thia-4,10,13,16,19-pentaaza-tricyclo[19.4.0.0*3,8*]pentacosa-1(25),3,5,7,21,23-hexaene-12,15,18-trione] gave an IC50 [1] of 17000 nM.

With `CN1C(=O)[C@H](CCCCN)NC(=O)[C@H](CCCN)NCc2cccnc2Sc2ccc(N3CCOCC3)nc2CNC(=O)[C@@H]1Cc1c[nH]c2ccccc12` [Example 218, (7S,10S,13S)-13-((1H-Indol-3-yl)methyl)-10-(4-aminobutyl)-7-(3-aminopropyl)-12-methyl-18-morpholino-6,7,9,10,12,13,15,16-octahydrodipyrido[2,3-b:2′,3′-p][1,5,8,11,14]thiatetraazacycloheptadecine-8,11,14(5H)-trione] the IC50 [1] was 2000 nM.

In the case of `CN1C(=O)[C@H](CCCCN)NC(=O)[C@H](CCCN)NCc2ccccc2Sc2c(-c3ccncc3)ncc(Cl)c2CNC(=O)[C@@H]1Cc1c[nH]c2ccccc12` [Example 195], the IC50 [1] is reported as 3000 nM.

For `CN(C)CCNC(=O)c1ccc(-c2ccc(Cl)c3c2CNC(=O)[C@H](Cc2c[nH]c4ccccc24)N(C)C(=O)[C@H](CCCCN)NC(=O)[C@H](CCCN)NCc2cccnc2S3)cc1` [Example 248, 4-[(11S,14S,17S)-14-(4-Amino-butyl)-11-(3-amino-propyl)-25-chloro-17-(1H-indol-3-ylmethyl)-16-methyl-12,15,18-trioxo-2-thia-4,10,13,16,19-pentaaza-tricyclo[19.4.0.0*3,8*]pentacosa-1(25),3(8),4,6,21,23-hexaen-22-yl]-N-(2-dimethylamino-ethyl)-benzamide], the IC50 [1] was under 100 nM.
